Results taken from PMC6272230, “Uses of 3-(2-Bromoacetyl)-2H-chromen-2-one in the Synthesis of Heterocyclic Compounds Incorporating Coumarin: Synthesis, Characterization and Cytotoxicity” (Molecules, 2015).

Tests used:
[1] = In vitro cytotoxicity against normal fibroblast cells WI38; format: cell-based; conditions: human, concentration producing 50% reduction in cell growth
Procedure: (§1) The heterocyclic compounds, prepared in this study, were evaluated according to standard protocols for their in vitro cytotoxicity against six human cancer cell lines including cells derived from human gastric cancer (NUGC), human colon cancer (DLD1), human liver cancer (HA22T and HEPG2), nasopharyngeal carcinoma (HONE1), human breast cancer (MCF) and normal fibroblast cells (WI38). For comparison purposes, CHS 828, a pyridyl cyanoguanidine, was used as a standard antitumor drug (Figure 2). […] All the synthesized compounds were tested for their cytotoxicity against normal fibroblast cells.
(§2) Fetal bovine serum (FBS) and L-glutamine, were purchased from Gibco Invitrogen Co. (Scotland, UK). RPMI-1640 medium was purchased from Cambrex (East Rutherford, NJ, USA). Dimethyl sulfoxide (DMSO), CHS 828, penicillin, streptomycin and sulforhodamine B (SRB) were purchased from Sigma Chemical Co. (Saint Louis, MO, USA).
(§3) Cell cultures were obtained from the European Collection of Cell Cultures (ECACC, Salisbury, UK) and human gastric cancer (NUGC), human colon cancer (DLD1), human liver cancer (HA22T and HEPG2), human breast cancer (MCF), nasopharyngeal carcinoma (HONE1) and normal fibroblast cells (WI38) were kindly provided by the National Cancer Institute (NCI, Cairo, Egypt). They were grown as a monolayer and routinely maintained in RPMI-1640 medium supplemented with 5% heat inactivated FBS, 2 mM glutamine and antibiotics (penicillin 100 U/mL, streptomycin 100 µg/mL) at 37 °C in a humidified atmosphere containing 5% CO2. Exponentially growing cells were obtained by plating 1.5 × 10^5 cells/mL for the six human cancer cell lines followed by 24 h of incubation. The effect of the vehicle solvent (DMSO) on the growth of these cell lines was evaluated in all the experiments by exposing untreated control cells to the maximum concentration (0.5%) of DMSO used in each assay.

[2] = test system: human liver cancer (HEPG2); assay: In vitro cytotoxicity against HEPG2 cells; format: cell-based; conditions: HEPG2, liver cancer, concentration producing 50% reduction in cell growth, read-out: Cytotoxicity (IC50 in nM) HEPG2
Procedure: as §1, §2, §3

[3] = test system: human breast cancer (MCF); assay: In vitro cytotoxicity against MCF cells; format: cell-based; conditions: MCF, breast cancer, concentration producing 50% reduction in cell growth, read-out: Cytotoxicity (IC50 in nM) MCF
Procedure: as §1, §2, §3

[4] = test system: human gastric cancer (NUGC); assay: In vitro cytotoxicity against NUGC cells; format: cell-based; conditions: gastric cancer, concentration producing 50% reduction in cell growth, read-out: Cytotoxicity (IC50 in nM) NUGC
Procedure: as §1, §2, §3

[5] = test system: human liver cancer (HA22T); assay: In vitro cytotoxicity against HA22T cells; format: cell-based; conditions: liver cancer, concentration producing 50% reduction in cell growth, read-out: Cytotoxicity (IC50 in nM) HA22T
Procedure: as §1, §2, §3

[6] = test system: human colon cancer (DLD1); assay: In vitro cytotoxicity against DLD1 cells; format: cell-based; conditions: DLD-1, DLDI, colon cancer, concentration producing 50% reduction in cell growth, read-out: Cytotoxicity (IC50 in nM) DLDI
Procedure: as §1, §2, §3

[7] = test system: nasopharyngeal carcinoma (HONE1); assay: In vitro cytotoxicity against HONE1 cells; format: cell-based; conditions: Homo sapiens; HONE1, nasopharyngeal carcinoma; concentration producing 50% reduction in cell growth; read-out: Cytotoxicity (IC50 in nM) HONE1
Procedure: as §1, §2, §3

Row | SMILES | IC50 [1] [nM] | melting point [°C] | IC50 [2] [nM] | IC50 [3] [nM] | IC50 [4] [nM] | IC50 [5] [nM] | IC50 [6] [nM] | IC50 [7] [nM]
1 | N#CC1=C(N)NC(c2cc3ccccc3oc2=O)=C(C#N)C1c1ccco1 (centres unmarked) [Compound 11d, 2-Amino-4-(furan-2-yl)-6-(2-oxo-2H-chromen-3-yl)-1,4-dihydropyridine-3,5-dicarbonitrile] | 652 | 168 to 170 | 3120 | 40 | 649 | 137 | 3460 | 1190
2 | COc1ccc(C2C(Br)=C(c3cc4ccccc4oc3=O)NC(N)=C2C#N)cc1 (centres unmarked) [Compound 7b, 2-Amino-5-bromo-4-(4-methoxyphenyl)-6-(2-oxo-2H-chromen-3-yl)-1,4-dihydropyridine-3-carbonitrile] | 160 | 164 to 166 | 738 | 409 | 782 | 783 | 532 | 180
3 | N#CC1=C(N)NC(c2cc3ccccc3oc2=O)=C(Br)C1c1ccccc1 (centres unmarked) [Compound 7a, 2-Amino-5-bromo-6-(2-oxo-2H-chromen-3-yl)-4-phenyl-1,4-dihydropyridine-3-carbonitrile] | 379 | 171 to 173 | 399 | 463 | 38 | 166 | 893 | 423
4 | O=c1oc2ccccc2cc1-c1cn(-c2ccc(Cl)cc2)c(=Nc2ccccc2)s1 [Compound 5d, 3-(3-(4-Chlorophenyl)-2-(phenylimino)-2,3-dihydrothiazol-5-yl)-2H-chromen-2-one] | 860 | 123 to 125 | 3740 | 1260 | 38 | 120 | 163 | 441
5 | N#CC1=C(N)OC(c2cc3ccccc3oc2=O)=C(C#N)C1c1ccccc1 (centres unmarked) [Compound 10a, 2-Amino-6-(2-oxo-2H-chromen-3-yl)-4-phenyl-4H-pyran-3,5-dicarbonitrile] | 417 | 173 to 175 | 2770 | 2530 | 537 | 1160 | 440 | 6270
6 | O=c1oc2ccccc2cc1-c1cn(-c2ccccc2)c(=Nc2ccccc2)s1 [Compound 5a, 3-(3-Phenyl-2-(phenylimino)-2,3-dihydrothiazol-5-yl)-2H-chromen-2-one] | 632 | 158 to 160 | 1110 | 2010 | 228 | 213 | 569 | 2050
7 | N#CC1=C(N)OC(c2cc3ccccc3oc2=O)=C(Br)C1c1ccc(Cl)cc1 (centres unmarked) [Compound 6c, 2-Amino-5-bromo-4-(4-chlorophenyl)-6-(2-oxo-2H-chromen-3-yl)-4H-pyran-3-carbonitrile] | 480 | 178 to 180 | 683 | 89 | 38 | 2270 | 283 | 1670
